The values below come from patent US10577363B2, “Substituted piperidine compounds” (EPIZYME, INC., priority 2014, dated 2020).

Test [1] has as its target T1, SMYD3 (Homo sapiens (Human), UniProt Q9H7B4). Description: SMYD3 biochemical assay (SPA, 3H-SAM methylation of MEKK2 protein substrate). The conditions noted are these: read-out: SMYD3 Biochem IC50*. The method, boiled down:
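Full-length native human SMYD3 (E. coli-expressed, tags removed) preincubated with compounds 30 min at room temperature, then reaction started with 3H-SAM and GST-tagged MEKK2 protein in 25 mM Tris-Cl pH 8.0, 1 mM TCEP, 0.005% BSG, 0.005% Tween 20. Quenched with unlabelled SAM (100 uM final); 3H-MEKK2 counted by SPA.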

In test [2] the target is T1, SMYD3. Description: SMYD3 cell assay (Trimethyl-MEKK2 In-Cell Western in 293T/17 cells). It counts as cell-based. The conditions noted are these: read-out: SMYD3 Cell IC50*. The gist of the method:
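In-Cell Western ratio of trimethyl-Lys260 MEKK2 to anti-flag signal; percent inhibition from DMSO and maximum-inhibition controls, IC50 by non-linear regression, triplicates.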

As a reminder, the IC50 is the concentration at which inhibition is half-maximal.

T1 sequence (Q9H7B4 whole entry): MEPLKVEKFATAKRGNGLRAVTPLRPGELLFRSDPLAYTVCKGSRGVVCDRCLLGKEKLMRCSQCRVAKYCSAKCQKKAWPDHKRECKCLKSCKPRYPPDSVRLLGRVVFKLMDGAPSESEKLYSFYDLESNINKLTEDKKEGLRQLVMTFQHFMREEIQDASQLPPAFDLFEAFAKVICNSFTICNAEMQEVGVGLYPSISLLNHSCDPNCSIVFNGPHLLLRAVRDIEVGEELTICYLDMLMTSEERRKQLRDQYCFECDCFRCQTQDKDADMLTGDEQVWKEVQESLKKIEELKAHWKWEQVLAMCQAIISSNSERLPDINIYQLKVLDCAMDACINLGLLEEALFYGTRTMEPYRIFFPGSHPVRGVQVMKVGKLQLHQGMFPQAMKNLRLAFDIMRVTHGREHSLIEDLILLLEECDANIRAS

Regarding `C[C@H]1C[C@@H](NC(=O)c2cc(C3CC3)on2)CCN1S(=O)(=O)N1CCC(N(C)CCN2CCOCC2)CC1` [compound 935, 5-cyclopropyl-N-((2S,4S)-2-methyl-1-((4-(methyl(2-morpholinoethyl)amino)piperidin-1-yl)sulfonyl)piperidin-4-yl)isoxazole-3-carboxamide], the IC50 in test [1] stood at 43 nM; in test [2], 414 nM.
The matching figures for `CN(CCCN1CCOCC1)C1CCN(S(=O)(=O)N2[C@@H]3CC[C@H]2C[C@@H](NC(=O)c2cc(C4CC4)on2)C3)CC1` [compound 936, 5-cyclopropyl-N-((1R,3r,5S)-8-((4-(methyl(3-morpholinopropyl)amino)piperidin-1-yl)sulfonyl)-8-azabicyclo[3.2.1]octan-3-yl)isoxazole-3-carboxamide]: 43.8 nM and 623 nM.
On the same counts, the results for `CC[C@@H]1CNCCN1S(=O)(=O)N1CC[C@H](NC(=O)c2cc(C3CC3)on2)C[C@@H]1C` [compound 937, 5-cyclopropyl-N-((2S,4S)-1-(((R)-2-ethylpiperazin-1-yl)sulfonyl)-2-methylpiperidin-4-yl)isoxazole-3-carboxamide] are 43.9 nM and 484 nM.
Turning to `N#Cc1ccc(CNC2CCN(S(=O)(=O)N3[C@@H]4CC[C@H]3C[C@@H](NC(=O)c3cc(C5CC5)on3)C4)CC2)cc1` [compound 938, N-((1R,3r,5S)-8-((4-((4-cyanobenzyl)amino)piperidin-1-yl)sulfonyl)-8-azabicyclo[3.2.1]octan-3-yl)-5-cyclopropylisoxazole-3-carboxamide], the IC50 in test [1] stood at 44.1 nM; in test [2] it was 508 nM.
As to `O=C(N[C@H]1C[C@H]2CC[C@@H](C1)N2S(=O)(=O)N1CCNCC1c1ccccc1)c1cc(C2CC2)on1` (stereo partly drawn) [compound 939, 5-cyclopropyl-N-((1R,3r,5S)-8-((2-phenylpiperazin-1-yl)sulfonyl)-8-azabicyclo[3.2.1]octan-3-yl)isoxazole-3-carboxamide], the IC50 in test [1] was 44.7 nM; in test [2], 361 nM.
The matching figures for `CC1CN(S(=O)(=O)N2[C@@H]3CC[C@H]2C[C@@H](NC(=O)c2cc(C4CC4)on2)C3)C(C)CN1C` (stereo partly drawn) [compound 941, 5-cyclopropyl-N-((1R,3r,5S)-8-((2,4,5-trimethylpiperazin-1-yl)sulfonyl)-8-azabicyclo[3.2.1]octan-3-yl)isoxazole-3-carboxamide]: 47.9 nM and 341 nM.
For the compound `O=C(N[C@H]1C[C@H]2CC[C@@H](C1)N2S(=O)(=O)NC1CCN[C@H](Cc2ccccc2)C1)c1cc(C2CC2)on1` (stereo partly drawn) [compound 942, N-((1R,3R,5S)-8-(N-((2R)-2-benzylpiperidin-4-yl)sulfamoyl)-8-azabicyclo[3.2.1]octan-3-yl)-5-cyclopropylisoxazole-3-carboxamide], the IC50 in test [1] is 48.1 nM; in test [2], 659 nM.
The matching figures for `C[C@H](NC1CCN(S(=O)(=O)N2[C@@H]3CC[C@H]2C[C@@H](NC(=O)c2cc(C4CC4)on2)C3)CC1)c1ccc(F)cc1` [compound 943, 5-cyclopropyl-N-((1R,3S,5S)-8-((4-(((S)-1-(4-fluorophenyl)ethyl)amino)piperidin-1-yl)sulfonyl)-8-azabicyclo[3.2.1]octan-3-yl)isoxazole-3-carboxamide]: 48.1 nM and 602 nM.
In the case of `C[C@@H](NC1CCN(S(=O)(=O)N2[C@@H]3CC[C@H]2C[C@@H](NC(=O)c2cc(C4CC4)on2)C3)CC1)c1ccc(F)cc1` [compound 944, 5-cyclopropyl-N-((1R,3R,5S)-8-((4-(((R)-1-(4-fluorophenyl)ethyl)amino)piperidin-1-yl)sulfonyl)-8-azabicyclo[3.2.1]octan-3-yl)isoxazole-3-carboxamide], the IC50 was found to be 48.9 nM in test [1] and 683 nM in test [2].
`O=C(N[C@H]1C[C@H]2CC[C@@H](C1)N2S(=O)(=O)N(Cc1ccccc1)C1CCNCC1)c1cc(C2CC2)on1` [compound 945, N-((1R,3r,5S)-8-(N-benzyl-N-(piperidin-4-yl)sulfamoyl)-8-azabicyclo[3.2.1]octan-3-yl)-5-cyclopropylisoxazole-3-carboxamide]: the values for the IC50 in test [1] and in test [2] were 50.6 nM and 223 nM, respectively.
`O=C(N[C@H]1C[C@H]2CC[C@@H](C1)N2S(=O)(=O)c1ccc(CNCCO)cc1)c1cc(C2CC2)on1` [compound 946, 5-cyclopropyl-N-((1R,3r,5S)-8-((4-(((2-hydroxyethyl)amino)methyl)phenyl)sulfonyl)-8-azabicyclo[3.2.1]octan-3-yl)isoxazole-3-carboxamide]: the figures for the IC50 in test [1] and in test [2] were 51 nM and 332 nM, respectively.
Consider `O=C(N[C@H]1C[C@H]2CC[C@@H](C1)N2S(=O)(=O)N1CCC(NCCN2CCOCC2)CC1)c1cc(C2CC2)on1` [compound 947, 5-cyclopropyl-N-((1R,3r,5S)-8-((4-((2-morpholinoethyl)amino)piperidin-1-yl)sulfonyl)-8-azabicyclo[3.2.1]octan-3-yl)isoxazole-3-carboxamide], for which the IC50 in test [1] is 52.3 nM; in test [2] it was 338 nM.
On the same counts, the results for `O=C(N[C@H]1C[C@H]2CC[C@@H](C1)N2S(=O)(=O)NC1CCN(Cc2ccccc2)CC1)c1cc(C2CC2)on1` [compound 948, N-((1R,3r,5S)-8-(N-(1-benzylpiperidin-4-yl)sulfamoyl)-8-azabicyclo[3.2.1]octan-3-yl)-5-cyclopropylisoxazole-3-carboxamide] are 52.4 nM and 411 nM.
Take `O=C(N[C@H]1CCN(S(=O)(=O)NC2CCNCC2)[C@@H](Cc2ccccc2)C1)c1cc(C2CC2)on1` [compound 949, N-((2S,4S)-2-benzyl-1-(N-(piperidin-4-yl)sulfamoyl)piperidin-4-yl)-5-cyclopropylisoxazole-3-carboxamide]: the IC50 in test [1] is 52.7 nM; in test [2], 1510 nM.
The matching figures for `CC1CN(C)CCN1S(=O)(=O)N1[C@@H]2CC[C@H]1C[C@@H](NC(=O)c1cc(C3CC3)on1)C2` (stereo partly drawn) [compound 950, 5-cyclopropyl-N-((1R,3r,5S)-8-((2,4-dimethylpiperazin-1-yl)sulfonyl)-8-azabicyclo[3.2.1]octan-3-yl)isoxazole-3-carboxamide]: 52.9 nM and 390 nM.
On the same counts, the results for `CN(C1CCCNC1)S(=O)(=O)N1[C@@H]2CC[C@H]1C[C@@H](NC(=O)c1cc(C3CC3)on1)C2` (stereo partly drawn) [compound 951, 5-cyclopropyl-N-((1R,3r,5S)-8-(N-methyl-N-(piperidin-3-yl)sulfamoyl)-8-azabicyclo[3.2.1]octan-3-yl)isoxazole-3-carboxamide] are 54.1 nM and 395 nM.
The matching figures for `CN1CCC[C@H](S(=O)(=O)N2[C@@H]3CC[C@H]2C[C@@H](NC(=O)c2cc(C4CC4)on2)C3)C1` [compound 952, 5-cyclopropyl-N-((1R,3S,5S)-8-(((S)-1-methylpiperidin-3-yl)sulfonyl)-8-azabicyclo[3.2.1]octan-3-yl)isoxazole-3-carboxamide]: 56.2 nM and 281 nM.
As to `O=C(N[C@H]1C[C@H]2CC[C@@H](C1)N2S(=O)(=O)c1ccc(CN2CCCC2)cc1)c1cc(C2CC2)on1` [compound 953, 5-cyclopropyl-N-((1R,3r,5S)-8-((4-(pyrrolidin-1-ylmethyl)phenyl)sulfonyl)-8-azabicyclo[3.2.1]octan-3-yl)isoxazole-3-carboxamide], the half-inhibitory concentration (IC50) in test [1] is 57 nM; in test [2] it was 585 nM.
The matching figures for `CC[C@H]1C[C@@H](NC(=O)c2cc(C3CC3)on2)CCN1S(=O)(=O)CC1CCN(C)CC1` [compound 954, 5-cyclopropyl-N-((2S,4S)-2-ethyl-1-(((1-methylpiperidin-4-yl)methyl)sulfonyl)piperidin-4-yl)isoxazole-3-carboxamide]: 57.9 nM and 583 nM.
On the same counts, the results for `COCCN1C2CCC1CN(S(=O)(=O)N1[C@@H]3CC[C@H]1C[C@@H](NC(=O)c1cc(C4CC4)on1)C3)C2` [compound 955, 5-cyclopropyl-N-((1R,3r,5S)-8-((8-(2-methoxyethyl)-3,8-diazabicyclo[3.2.1]octan-3-yl)sulfonyl)-8-azabicyclo[3.2.1]octan-3-yl)isoxazole-3-carboxamide] are 59.2 nM and 373 nM.
With `O=C(N[C@H]1C[C@H]2CC[C@@H](C1)N2S(=O)(=O)C[C@H]1CCCN1)c1cc(C2CC2)on1` [compound 956, 5-cyclopropyl-N-((1R,3R,5S)-8-((((R)-pyrrolidin-2-yl)methyl)sulfonyl)-8-azabicyclo[3.2.1]octan-3-yl)isoxazole-3-carboxamide], the IC50 was found to be 59.6 nM in test [1] and 733 nM in test [2].
The matching figures for `C[C@H]1CN(S(=O)(=O)[C@H]2CC[C@@H](N(C)C)CC2)CC[C@H]1NC(=O)c1cc(C2CC2)on1` [compound 957, 5-cyclopropyl-N-((3S,4R)-1-(((1s,4R)-4-(dimethylamino)cyclohexyl)sulfonyl)-3-methylpiperidin-4-yl)isoxazole-3-carboxamide]: 69 nM and 512 nM.
Consider `O=C(N[C@H]1C[C@H]2CC[C@@H](C1)N2S(=O)(=O)N1CCC(Nc2ncccn2)CC1)c1cc(C2CC2)on1` [compound 958, 5-cyclopropyl-N-((1R,3r,5S)-8-((4-(pyrimidin-2-ylamino)piperidin-1-yl)sulfonyl)-8-azabicyclo[3.2.1]octan-3-yl)isoxazole-3-carboxamide], for which the IC50 was 76.7 nM in test [1] and 486 nM in test [2].
On the same counts, the results for `NCCc1ccc(S(=O)(=O)N2[C@@H]3CC[C@H]2C[C@@H](NC(=O)c2cc(C4CC4)on2)C3)cc1` [compound 959, N-((1R,3r,5S)-8-((4-(2-aminoethyl)phenyl)sulfonyl)-8-azabicyclo[3.2.1]octan-3-yl)-5-cyclopropylisoxazole-3-carboxamide] are 79.7 nM and at least 10000 nM.
